Reference: patent US6391284B1, “Nonalcoholic pharmaceutical preparations from formulations including alcohol and process for the preparation thereof” (priority 2001, dated 2002)

Assay: Solubility in water
Format: physicochemical

For `CC1=C(/C=C/C(C)=C/C=C/C(C)=C\C(=O)O)C(C)(C)CCC1` [cis-retinoic acid], the water solubility was “extremely water insoluble”.
